Like-named read-outs stand apart in the source and are kept apart here.
Tests used:
[1] = In vitro stability of prodrug to household chemicals and enzyme preparations; format: physicochemical; conditions: vodka, baking soda, WINDEX, vinegar (RT or 80° C.) and GNC Super Digestive, tenderizer, subtilisn (RT), 1 or 24 hr
Experimental: (§1) Samples were incubated as described and aliquots removed at 1 hr and 24 hr and stabilized by adding each to a solution of 50% or 100% of 85% phosphoric acid solution to achieve a final pH of less than or equal to pH 4. The stabilized aliquots were then diluted 4- to 6-fold with water, vortex-mixed and applied to HPLC.
as §1, with “described. Aliquots were” for “described and aliquots”

[2] = biological target: T1, trypsin from bovine pancreas (Bos taurus, UniProt P00760); assay: In vitro trypsin-mediated release of drug from prodrug, without or with trypsin inhibitor Compound 109; format: biochemical
T1 construct: purchased Sigma-Aldrich T8003; host or cells: bovine pancreas
T1 sequence (P00760 24-246): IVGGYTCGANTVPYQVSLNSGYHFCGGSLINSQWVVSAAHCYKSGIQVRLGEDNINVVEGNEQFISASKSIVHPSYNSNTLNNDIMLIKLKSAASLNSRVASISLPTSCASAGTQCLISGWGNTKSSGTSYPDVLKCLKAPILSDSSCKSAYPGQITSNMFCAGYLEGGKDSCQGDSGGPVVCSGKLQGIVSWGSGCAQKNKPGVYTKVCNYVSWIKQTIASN
Experimental: The reactions were conducted at 37° C. for 24 hr. Samples were collected at specified time points, transferred into 0.5% formic acid in acetonitrile to stop trypsin activity and stored at less than −70° C. until analysis by LC-MS/MS.
Other reaction and sample treatment conditions were as described above.

human μ-opioid receptor [3] = biological target: T2, human μ-opioid receptor (Homo sapiens, UniProt P35372); assay: In vitro human μ-opioid receptor binding assay ([3H]DAMGO, recombinant HEK-293 cells); conditions: from Table 8
[4] = Pharmacokinetics following PO administration to rats (drug released into plasma from prodrug, or oxycodone); format: in vivo, rat; conditions: for oxycodone plasma concentrations compared to administration of oxycodone: PO prodrug versus PO oxycodone 10 mg/kg (Example 15)
Experimental: At specified time points, blood samples were drawn, harvested for plasma via centrifugation at 5,400 rpm at 4° C. for 5 min, and 100 microliters (μl) plasma transferred from each sample into a fresh tube containing 1 μl of formic acid. The tubes were vortexed for 5-10 seconds, immediately placed in dry ice and then stored until analysis by high performance liquid chromatography/mass spectrometry (HPLC/MS).
At specified time points, blood samples were drawn, harvested for plasma via centrifugation at 5,400 rpm at 4° C. for 5 min, and 100 microliters (μl) plasma transferred from each sample into a fresh tube containing 2 μl of 50% formic acid. The tubes were vortexed for 5-10 seconds, immediately placed in dry ice and then stored in −80° C. freezer until analysis by HPLC/MS.
At specified time points, blood samples were drawn, harvested for plasma via centrifugation at 5,400 rpm at 4° C. for 5 min, and 100 μl plasma transferred from each sample into a fresh tube containing 2 μl of 50% formic acid. The tubes were vortexed for 5-10 seconds, immediately placed in dry ice and then stored in −80° C. freezer until analysis by HPLC/MS.

[5] = Pharmacokinetics following IV administration of prodrug to rats; format: in vivo, rat
[6] = In vivo tolerability of Compound KC-3 IV in rats; design: species or system rat; conditions: IV KC-3 71 mg/kg (97 μmol/kg), 4 rats dosed, observed up to 24 hours
Experimental: Male naïve Sprague-Dawley rats, 4 per dose, were used in the study. Rats were weighed, and then placed under a heat lamp for 15-20 minutes to dilate the lateral tail veins. […] Before dosing, rats were placed in Broome restrainers and the drug was introduced into one of the tail veins using a syringe and needle. […] Blood samples were collected 5 minutes post-dose via the saphenous vein. The rats were observed up to 24 hours.

human μ-opioid receptor [7] = biological target: T2, human μ-opioid receptor; format: cell-based; design: expressed in transfected cells; host or cells: CHO; conditions: Experiment 3; EC50 ratio, oxycodone or hydrocodone to its prodrug
Experimental: The control reaction included 1 μM DAMGO. The reaction mixtures were incubated at 37° C. for 10 min, and the reaction product was cyclic AMP (cAMP). The samples were submitted to homogeneous time resolved fluorescence (HTRF®). EC50 values (concentration producing a half-maximal specific response) were determined by non-linear regression fit using the Hillplot software.

[8] = rats, IV Compound KC-2 10 mg/kg or equimolar oxycodone, 15 minutes
[9] = 241 BAEE U trypsin/mL, no inhibitor
[10] = 4815 BAEE U trypsin/mL, no inhibitor

T2 sequence (P35372 whole entry): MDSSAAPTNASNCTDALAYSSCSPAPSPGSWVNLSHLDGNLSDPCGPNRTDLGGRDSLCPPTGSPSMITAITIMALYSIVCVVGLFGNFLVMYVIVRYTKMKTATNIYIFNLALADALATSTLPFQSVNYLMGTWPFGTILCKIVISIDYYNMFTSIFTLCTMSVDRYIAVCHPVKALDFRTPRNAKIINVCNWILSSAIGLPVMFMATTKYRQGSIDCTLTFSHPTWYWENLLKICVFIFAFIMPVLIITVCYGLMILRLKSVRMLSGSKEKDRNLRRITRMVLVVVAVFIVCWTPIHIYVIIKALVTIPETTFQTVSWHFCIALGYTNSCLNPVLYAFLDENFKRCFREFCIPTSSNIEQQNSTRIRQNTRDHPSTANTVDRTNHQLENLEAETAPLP

For COc1ccc2c3c1O[C@H]1C(OC(=O)N(C)CCNC(=O)[C@H](CCCNC(=N)N)NC(C)=O)=CC[C@@]4(O)C(C2)N(C)CC[C@]314 [Compound KC-2, Oxycodone 6-(N-methyl-N-(2-N′-acetylarginylamino)) ethylcarbamate], the conversion to oxycodone [1] was “less than 10%”, the “Rate of oxycodone formation” value ([2]; no trypsin inhibitor, 0.761 mM prodrug, 0.0228 mg/mL trypsin, 37° C.) was 37.4 ± 0.9 umols/h/umol trypsin and the “affinity for the μ-opioid receptor, fold less than that of oxycodone” value (human μ-opioid receptor [3]) was “about 2 fold”. The “relative plasma/CSF partitioning coefficient to oxycodone (fold less CSF penetrant than oxycodone)” value (Table 10, 439/3.8) was “about 116 fold”, the “Compound conc. in Plasma” value (male, Sprague Dawley, rat, in vivo) was 27,200 ng/mL and the “Compound conc. in CSF” value [8] was 61.9 ng/mL. The Plasma/CSF partitioning coefficient [8] was 439, the “plasma concentrations of oxycodone versus Compound KC-2 dose” value ([4]; PO 1.3 to 50 mg/kg, Table 6, FIG. 9) was “increase proportionally” and the “oxycodone plasma concentrations compared to administration of oxycodone” value [4] was “suppressed Cmax and delayed Tmax”. The “Cmax of Compound KC-2 in plasma” value ([5]; IV Compound KC-2 2 mg/kg, average ± sd, 4 rats) was 2680 ± 755 ng/mL.

For COc1ccc2c3c1O[C@H]1C(OC(=O)N(C)CCNC(=O)[C@H](CCCNC(=N)N)NC(=O)CC(=O)O)=CC[C@@]4(O)[C@@H](C2)N(C)CC[C@]314 [Compound KC-3, N—{(S)-4-guanidino-1-[2-(methyl-[(5R,9R,13S,14S)-4,5a-epoxy-6,7-didehydro-14-hydroxy-3-methoxy-17-methylmorphinan-6-oxy]carbonyl-amino)-ethylcarbamoyl]-butyl}-malonamic acid], the “Rate of oxycodone formation” value [2, 9] was 0.0684 ± 0.0009 umol/h/ BAEE U, the “relative plasma/CSF partitioning coefficient to oxycodone (fold less CSF penetrant than oxycodone)” value (Table 15, 1,737/4.8) was “about 364 fold” and the “plasma concentrations of oxycodone versus Compound KC-3 dose” value ([4]; PO 1.4 to 46 mg/kg, Table 11, FIG. 11) was “increase proportionally”. The Clinical observations [6] was 2 normal and 2 with ataxia which.

For COc1ccc2c3c1OC1C(OC(=O)N(C)CCNC(=O)C(CCCNC(=N)N)NC(=O)CC(=O)O)=CCC4C(C2)N(C)CCC314 [Compound KC-4, N—((S)-1-{2-[(Dihydrocodein-6-enyloxycarbonyl)-methylamino]-ethylcarbamoyl-4-guanidino}-butyl)-malonamic acid], the Drug/prodrug relative potency (human μ-opioid receptor [7]) was 15, the “Rate of hydrocodone formation” value [2, 9] was 0.0911 ± 0.015 umol/h/ BAEE U and the “Rate of hydrocodone formation” value [2, 10] was 0.0137 ± 0.0014 umol/h/ BAEE U. The “KC-4 Cmax ± sd” value ([5]; IV KC-4 2 mg/kg ([…])) was 3960 ± 570 ng/mL.

In the case of COc1ccc2c3c1O[C@H]1C(OC(=O)N(CCCCCC(=O)O)CCNC(=O)[C@H](CCCNC(=N)N)NC(C)=O)=CC[C@@]4(O)[C@@H](C2)N(C)CC[C@]314 [Compound KC-5, 6-{[2-(2-Acetylamino-5-guanidino-pentanoylamino)-ethyl]-[(5R,9R,13S,14S)-4,5a-epoxy-6,7-didehydro-14-hydroxy-3-methoxy-17-methylmorphinan-6-oxy]-1-enyloxycarbonyl-amino}-hexanoic acid], the “Rate of oxycodone formation” value [2, 9] is reported as 0.135 ± 0.005 umol/h/ BAEE U, the “relative plasma/CSF partitioning coefficient to oxycodone (fold less CSF penetrant than oxycodone)” value (Table 22, 1,508/4.8) is reported as “about 316 fold” and the “oxycodone plasma concentrations compared to administration of oxycodone” value [4] is reported as “suppressed Cmax and AUC and delayed Tmax”.

For COc1ccc2c3c1O[C@H]1C(OC(=O)N(C)C[C@H](NC(=O)[C@H](CCCNC(=N)N)NC(C)=O)C(=O)N(C)CC(=O)O)=CC[C@@]4(O)[C@@H](C2)N(C)CC[C@]314 [Compound KC-6], the “Rate of oxycodone formation” value [2, 9] was 0.0118 ± 0.0042 umol/h/ BAEE U, the “Rate of oxycodone formation” value [2, 10] was 0.00571 ± 0.0002 umol/h/ BAEE U and the “relative plasma/CSF partitioning coefficient to oxycodone (fold less CSF penetrant than oxycodone)” value (Table 25, 815/4.8) was “about 171 fold”. For the same compound, the “oxycodone plasma concentrations compared to administration of oxycodone” value [4] was “suppressed Cmax and AUC and delayed Tmax”.

Reference: US9493477B2, “Compositions comprising enzyme-cleavable ketone-modified opioid prodrugs and optional inhibitors thereof” (priority 2009, dated 2016)
